Common to all, as to assay: NCI anticancer screen, dose series, 48 h
In experiment [1] the test system is 786-0.
Experiment [2] has as its system BT-549.
Experiment [3] deals with CAKI-1.
The subject of experiment [4] is CCRF-CEM.
For experiment [5], the system named is DU-145.
The test system of experiment [6] is EKVX.
The subject of experiment [7] is HCC 2998.
Experiment [8] relates to HL-60.
For experiment [9], the system named is HOP-92.
The test system of experiment [10] is LOX IMVI.
Experiment [11] relates to NCI-H460.
The subject of experiment [12] is OVCAR-5.
The test system of experiment [13] is PC-3.
The test system of experiment [14] is RPMI-8226.
Experiment [15] deals with RXF 393.
Experiment [16] has as its system SF-539.
The test system of experiment [17] is SK-MEL-28.
The test system of experiment [18] is SK-MEL-2.
For experiment [19], the system named is UACC-62.
Experiment [20] concerns SF-268.

SMILES strings stand for the structures.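 Dose response: 5 concentrations. Exposure: 48 h. Format: 96-well plates. Endpoint: linear interpolation; highest concentration if not reached. At the GI50, growth is halved.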 Active and inactive are the calls of the source. Cut-off read from the data, not from the text of the source: active = GI50 up to about 1.1 µM and inactive = higher.

The text below walks through data of ChEMBL document CHEMBL1201862, “PubChem BioAssay data set” (2004).

As for `CC(=O)N[C@@H](Cc1ccc(O)cn1)C(=O)NCc1ccc(Cl)cc1`, the GI50 in experiment [1] is > 100 µM (inactive); in [2] it was > 100 µM (inactive); in experiment [3], > 100 µM (inactive); in experiment [4] it was 31.5 µM (inactive); in [5], > 100 µM (inactive); in [6], > 100 µM (inactive). For the same compound, the GI50 was > 100 µM (inactive) in experiment [7]; > 100 µM (inactive) in [8]; 94.4 µM (inactive) in [9]; > 100 µM (inactive) in experiment [10]; > 100 µM (inactive) in [11]; > 100 µM (inactive) in [12]. The GI50 in experiment [13], in experiment [14], in experiment [15], in [16], in [17] and in [18] was > 100 µM (inactive) throughout. Further, the GI50 in [19] is > 100 µM (inactive).
For `O=c1[nH]nc(Nc2ccccc2)c2nnn(Cc3ccccc3)c12`, the GI50 in experiment [1] is 25.3 µM (inactive); in experiment [2] it was > 100 µM (inactive); in experiment [3], > 100 µM (inactive); in experiment [4], > 100 µM (inactive); in [5], > 100 µM (inactive); in [6], > 100 µM (inactive). For the same compound, the GI50 in experiment [7] is > 100 µM (inactive); in experiment [8] it was > 100 µM (inactive); in experiment [9] it was 57 µM (inactive); in experiment [10], > 100 µM (inactive); in experiment [11] it was 85.3 µM (inactive); in experiment [12] it was > 100 µM (inactive). Also, the GI50 in experiment [13] was > 100 µM (inactive); in experiment [15] it was > 100 µM (inactive); in experiment [20], > 100 µM (inactive); in experiment [16], 54.2 µM (inactive); in experiment [17], > 100 µM (inactive); in experiment [18], > 100 µM (inactive). Also, the GI50 in experiment [19] was > 100 µM (inactive).
As for `CCN1C2=NCCN2S(=O)(=O)c2ccccc21`, the GI50 in [1], in experiment [2], in [3], in [4], in [5] and in experiment [6] was > 100 µM (inactive) in each case. Moreover, the GI50 in experiment [7], in experiment [8], in [9], in experiment [10], in experiment [11] and in experiment [12] was > 100 µM (inactive) each time. The GI50 in [13], in experiment [15], in experiment [20], in experiment [16], in experiment [17] and in experiment [18] was > 100 µM (inactive) in each case. For the same compound, the GI50 in experiment [19] was > 100 µM (inactive).
Consider `CCSCC(N)C(=O)O` (configuration not stated), for which the GI50 in [1], in experiment [2], in experiment [3], in experiment [4], in experiment [5] and in experiment [6] was > 100 µM (inactive) throughout. The GI50 was > 100 µM (inactive) in [8]; 0.0337 µM (active) in experiment [9]; > 100 µM (inactive) in experiment [10]; > 100 µM (inactive) in experiment [11]; > 100 µM (inactive) in experiment [12]; > 100 µM (inactive) in experiment [13]. For the same compound, the GI50 in [14], in [15], in [20], in [17], in experiment [18] and in experiment [19] was > 100 µM (inactive) throughout.
Turning to `O=C1CCSSCCC(=O)Nc2ccccc2N1`, the GI50 in experiment [1], in [2], in experiment [3], in experiment [4], in experiment [5] and in experiment [6] was > 100 µM (inactive) in each case. For the same compound, the GI50 in experiment [8], in experiment [9], in experiment [10], in [11], in experiment [12] and in [13] was > 100 µM (inactive) in each case. For the same compound, the GI50 in [14], in [15], in experiment [20], in experiment [16], in [17] and in experiment [18] was > 100 µM (inactive) each time. In addition, the GI50 in experiment [19] was > 100 µM (inactive).
With `CC(C)(C)NC(=O)N1N=C(c2ccccc2)C1c1ccccc1` (configuration not stated), the GI50 in experiment [1] was 15.7 µM (inactive); in [2], 29.9 µM (inactive); in experiment [3], 26.4 µM (inactive); in [4] it was 22.6 µM (inactive); in experiment [5], > 100 µM (inactive); in experiment [6] it was 42.6 µM (inactive). Further, the GI50 was > 100 µM (inactive) in experiment [7]; 32.6 µM (inactive) in experiment [8]; 22.3 µM (inactive) in [9]; 35.7 µM (inactive) in [10]; 41.1 µM (inactive) in experiment [11]; > 100 µM (inactive) in experiment [12]. The GI50 in [13] was 26.6 µM (inactive); in [14] it was 22.5 µM (inactive); in experiment [15], 14 µM (inactive); in experiment [20] it was 66.5 µM (inactive); in experiment [16] it was 22.1 µM (inactive); in [17], 48.3 µM (inactive). Moreover, the GI50 in [19] is 52.6 µM (inactive).
As to `O=C1/C(=C\c2ccco2)Oc2ccccc21`, the GI50 in experiment [1] was > 100 µM (inactive); in experiment [2], > 100 µM (inactive); in experiment [3], > 100 µM (inactive); in [4], > 100 µM (inactive); in [5], > 100 µM (inactive); in experiment [6], 42.9 µM (inactive). Besides, the GI50 in [7] was > 100 µM (inactive); in [8], 39.4 µM (inactive); in [9], > 100 µM (inactive); in experiment [10], > 100 µM (inactive); in [11], > 100 µM (inactive); in experiment [12] it was > 100 µM (inactive). Further, the GI50 was > 100 µM (inactive) in experiment [13]; 89.5 µM (inactive) in experiment [14]; > 100 µM (inactive) in experiment [15]; > 100 µM (inactive) in experiment [20]; > 100 µM (inactive) in experiment [17]; > 100 µM (inactive) in [18]. Besides, the GI50 in experiment [19] is > 100 µM (inactive).
On to `Cc1ccc(Nc2nc3[nH]ccc3c(=O)[nH]2)cc1`, for which the GI50 is > 100 µM (inactive) in experiment [1]; 70.3 µM (inactive) in experiment [2]; 85.5 µM (inactive) in [3]; > 100 µM (inactive) in [4]; 53.6 µM (inactive) in experiment [5]; 76.2 µM (inactive) in experiment [6]. The GI50 in [7] was 71.6 µM (inactive); in experiment [8], 75.5 µM (inactive); in experiment [9], > 100 µM (inactive); in [10], > 100 µM (inactive); in experiment [11] it was > 100 µM (inactive); in experiment [12], > 100 µM (inactive). In addition, the GI50 in experiment [13] is 37.8 µM (inactive); in [14] it was > 100 µM (inactive); in experiment [15] it was 14.5 µM (inactive); in experiment [20], 65.3 µM (inactive); in [16] it was > 100 µM (inactive); in [18], > 100 µM (inactive). Besides, in experiment [19], the GI50 was 93.8 µM (inactive).
With `CN/C(N)=N/N=C1/C(=O)Nc2ccccc21`, the GI50 in [1], in [2], in experiment [3], in experiment [4], in [5] and in experiment [6] was > 100 µM (inactive) throughout. Moreover, the GI50 in [7], in experiment [8], in [9], in [10], in experiment [11] and in experiment [12] was > 100 µM (inactive) throughout. Further, the GI50 in experiment [13], in experiment [14], in experiment [15], in [20], in experiment [17] and in experiment [18] was > 100 µM (inactive) each time. For the same compound, in experiment [19], the GI50 is > 100 µM (inactive).
With `N=C(N)C(/N=N\c1ccccc1)C(N)=O` (configuration not stated), the GI50 is > 100 µM (inactive) in experiment [1]; > 100 µM (inactive) in experiment [2]; 64.7 µM (inactive) in experiment [3]; > 100 µM (inactive) in [5]; 95.7 µM (inactive) in [6]; > 100 µM (inactive) in experiment [7]. Besides, the GI50 in [8] was > 100 µM (inactive); in [9], > 100 µM (inactive); in [10] it was 83 µM (inactive); in experiment [11], > 100 µM (inactive); in experiment [12], > 100 µM (inactive); in experiment [13] it was > 100 µM (inactive). For the same compound, the GI50 was > 100 µM (inactive) in experiment [14]; 87.3 µM (inactive) in [15]; > 100 µM (inactive) in experiment [20]; > 100 µM (inactive) in [17]; 66.1 µM (inactive) in experiment [18]; 43.3 µM (inactive) in [19].
For `OCCCCCNc1nc(O)c2[nH]cnc2n1`, the GI50 in experiment [1], in experiment [2], in experiment [3], in experiment [4], in experiment [5] and in experiment [6] was > 100 µM (inactive) throughout. Besides, the GI50 in [7], in experiment [8], in experiment [9], in experiment [10], in experiment [11] and in experiment [12] was > 100 µM (inactive) each time. Also, the GI50 in experiment [13] is > 100 µM (inactive); in experiment [14] it was > 100 µM (inactive); in experiment [15], > 10 µM (inactive); in [20], > 100 µM (inactive); in experiment [16], 8.17 µM (inactive); in experiment [18], > 100 µM (inactive). In experiment [19], the GI50 is > 100 µM (inactive).
